From ChEMBL document CHEMBL1147408, “Modulation of selective serotonin reuptake inhibitor and 5-HT1A antagonist activity in 8-aza-bicyclo[3.2.1]octane derivatives of 2,3-dihydro-1,4-benzodioxane” (Bioorg Med Chem Lett, 2004)

What was measured:
[1] = biological target: T1, 5-hydroxytryptamine receptor 1A (Homo sapiens) (UniProt P08908); experiment: (§1) Agonistic activity of compound towards 5-hydroxytryptamine 1A receptor was evaluated by [35S]GTP-gamma-S, stimulated cAMP assay; format: functional
T1 sequence (whole entry): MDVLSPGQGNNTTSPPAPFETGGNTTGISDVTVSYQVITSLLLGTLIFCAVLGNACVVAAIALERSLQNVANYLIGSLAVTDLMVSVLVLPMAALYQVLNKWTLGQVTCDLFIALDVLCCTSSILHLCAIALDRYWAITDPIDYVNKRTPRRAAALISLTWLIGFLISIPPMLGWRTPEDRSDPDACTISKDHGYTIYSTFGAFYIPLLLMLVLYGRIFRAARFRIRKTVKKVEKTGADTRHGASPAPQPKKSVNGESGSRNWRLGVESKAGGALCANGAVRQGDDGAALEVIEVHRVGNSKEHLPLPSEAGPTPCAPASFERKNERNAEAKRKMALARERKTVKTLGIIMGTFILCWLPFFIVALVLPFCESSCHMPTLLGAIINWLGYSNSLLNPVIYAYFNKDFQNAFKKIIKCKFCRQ

[2] = biological target: T2, Adrenergic receptor alpha-1 (Rattus norvegicus, UniProt P15823+P23944+P43140); experiment: Displacement of [3H]prazosin from alpha-1 adrenergic receptor; format: protein assay
T2 sequence (P15823 whole entry): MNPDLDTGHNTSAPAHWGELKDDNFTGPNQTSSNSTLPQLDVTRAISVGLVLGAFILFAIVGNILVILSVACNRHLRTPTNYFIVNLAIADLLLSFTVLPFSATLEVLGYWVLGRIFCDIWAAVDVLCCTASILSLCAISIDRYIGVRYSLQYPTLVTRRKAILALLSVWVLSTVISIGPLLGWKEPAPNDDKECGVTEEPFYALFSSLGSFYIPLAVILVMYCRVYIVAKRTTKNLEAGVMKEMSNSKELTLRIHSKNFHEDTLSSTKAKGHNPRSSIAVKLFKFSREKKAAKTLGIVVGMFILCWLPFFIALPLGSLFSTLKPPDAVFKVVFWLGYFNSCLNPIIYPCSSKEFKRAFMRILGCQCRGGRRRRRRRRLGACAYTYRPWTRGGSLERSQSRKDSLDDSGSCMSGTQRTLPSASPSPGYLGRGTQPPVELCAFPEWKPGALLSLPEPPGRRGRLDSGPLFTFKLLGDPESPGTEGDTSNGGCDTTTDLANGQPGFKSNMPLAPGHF
T2 sequence (P23944 whole entry): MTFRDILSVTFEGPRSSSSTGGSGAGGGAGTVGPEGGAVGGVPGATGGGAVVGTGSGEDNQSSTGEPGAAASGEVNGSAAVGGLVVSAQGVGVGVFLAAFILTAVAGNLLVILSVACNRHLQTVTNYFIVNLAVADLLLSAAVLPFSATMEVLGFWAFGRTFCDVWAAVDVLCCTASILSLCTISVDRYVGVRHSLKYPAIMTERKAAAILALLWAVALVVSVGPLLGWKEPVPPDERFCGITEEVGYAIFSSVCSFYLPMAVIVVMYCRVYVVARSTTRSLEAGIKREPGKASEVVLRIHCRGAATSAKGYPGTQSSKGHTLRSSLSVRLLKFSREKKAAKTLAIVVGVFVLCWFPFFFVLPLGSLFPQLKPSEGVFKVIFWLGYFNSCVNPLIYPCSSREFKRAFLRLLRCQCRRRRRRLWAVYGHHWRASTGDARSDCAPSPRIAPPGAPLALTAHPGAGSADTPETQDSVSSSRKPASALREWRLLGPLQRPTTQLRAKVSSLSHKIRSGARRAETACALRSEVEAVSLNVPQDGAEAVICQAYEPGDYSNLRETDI
T2 sequence (P43140 whole entry): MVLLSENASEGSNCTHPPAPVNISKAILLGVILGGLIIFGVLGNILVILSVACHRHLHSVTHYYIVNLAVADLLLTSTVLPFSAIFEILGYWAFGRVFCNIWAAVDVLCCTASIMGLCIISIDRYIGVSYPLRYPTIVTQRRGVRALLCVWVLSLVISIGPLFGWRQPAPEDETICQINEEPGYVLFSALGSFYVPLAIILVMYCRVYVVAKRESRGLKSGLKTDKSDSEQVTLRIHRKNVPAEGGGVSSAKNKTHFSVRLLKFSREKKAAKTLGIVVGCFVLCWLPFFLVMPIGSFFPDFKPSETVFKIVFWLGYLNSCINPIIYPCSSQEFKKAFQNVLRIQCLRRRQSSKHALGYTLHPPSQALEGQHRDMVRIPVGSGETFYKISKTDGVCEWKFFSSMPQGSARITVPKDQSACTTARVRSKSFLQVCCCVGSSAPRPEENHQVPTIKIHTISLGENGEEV

[3] = biological target: T3, 5-hydroxytryptamine receptor 1A (Homo sapiens, UniProt P08908); experiment: Displacement of [3H]8-OH-DPAT from human 5-hydroxytryptamine 1A receptor expressed in CHO cells; format: cell-based
T3 sequence (P08908 whole entry): T1 sequence (whole entry)

[4] = biological target: T3, 5-hydroxytryptamine receptor 1A; experiment: Agonistic activity of compound towards 5-hydroxytryptamine 1A receptor was evaluated by forskolin stimulated cAMP assay; format: functional
[5] = biological target: Sodium-dependent serotonin transporter (Rattus norvegicus) (UniProt P31652); experiment: Inhibition of serotonin transporter; parameters: concentration or dose not given beside the values; settings: concentration not given here
[6] = biological target: T3, 5-hydroxytryptamine receptor 1A; experiment: as §1; format: functional
[7] = biological target: T1, 5-hydroxytryptamine receptor 1A (Homo sapiens); experiment: Inhibition of [3H]8-OH-DPAT binding to human 5-hydroxytryptamine 1A receptor at 1000 nM compound concentration
[8] = biological target: T4, Sodium-dependent serotonin transporter (Homo sapiens, UniProt P31645); experiment: Inhibitory activity of compound against serotonin transport by HC5-5-HT transporter
[9] = biological target: T4, Sodium-dependent serotonin transporter; experiment: Inhibitory activity of compound against serotonin transport by RB5-5-HT transporter
[10] = biological target: Adrenergic receptor alpha-1 (Homo sapiens) (UniProt P35348+P25100+P35368); experiment: Inhibition of [3H]prazosin binding to alpha-1 adrenergic receptor at 100 nM compound concentration; format: protein assay

Chain of Sodium-dependent serotonin transporter (Rattus norvegicus) (P31652 whole entry): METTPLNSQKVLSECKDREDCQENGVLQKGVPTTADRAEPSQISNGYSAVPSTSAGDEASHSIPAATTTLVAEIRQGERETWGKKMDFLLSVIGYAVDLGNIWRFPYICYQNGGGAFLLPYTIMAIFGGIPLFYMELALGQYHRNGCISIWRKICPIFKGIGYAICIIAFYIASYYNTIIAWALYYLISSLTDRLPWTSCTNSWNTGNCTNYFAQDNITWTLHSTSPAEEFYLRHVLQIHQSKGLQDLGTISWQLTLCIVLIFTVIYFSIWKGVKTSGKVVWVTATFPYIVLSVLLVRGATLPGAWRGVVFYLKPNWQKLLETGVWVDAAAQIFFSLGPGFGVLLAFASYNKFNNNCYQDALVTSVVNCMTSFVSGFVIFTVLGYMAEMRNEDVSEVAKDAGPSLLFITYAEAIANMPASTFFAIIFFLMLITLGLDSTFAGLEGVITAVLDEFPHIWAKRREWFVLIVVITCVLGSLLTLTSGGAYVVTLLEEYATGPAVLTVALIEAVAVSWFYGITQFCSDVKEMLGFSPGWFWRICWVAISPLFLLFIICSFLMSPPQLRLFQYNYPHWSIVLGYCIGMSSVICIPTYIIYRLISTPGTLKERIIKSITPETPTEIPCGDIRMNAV
T4 sequence (P31645 whole entry): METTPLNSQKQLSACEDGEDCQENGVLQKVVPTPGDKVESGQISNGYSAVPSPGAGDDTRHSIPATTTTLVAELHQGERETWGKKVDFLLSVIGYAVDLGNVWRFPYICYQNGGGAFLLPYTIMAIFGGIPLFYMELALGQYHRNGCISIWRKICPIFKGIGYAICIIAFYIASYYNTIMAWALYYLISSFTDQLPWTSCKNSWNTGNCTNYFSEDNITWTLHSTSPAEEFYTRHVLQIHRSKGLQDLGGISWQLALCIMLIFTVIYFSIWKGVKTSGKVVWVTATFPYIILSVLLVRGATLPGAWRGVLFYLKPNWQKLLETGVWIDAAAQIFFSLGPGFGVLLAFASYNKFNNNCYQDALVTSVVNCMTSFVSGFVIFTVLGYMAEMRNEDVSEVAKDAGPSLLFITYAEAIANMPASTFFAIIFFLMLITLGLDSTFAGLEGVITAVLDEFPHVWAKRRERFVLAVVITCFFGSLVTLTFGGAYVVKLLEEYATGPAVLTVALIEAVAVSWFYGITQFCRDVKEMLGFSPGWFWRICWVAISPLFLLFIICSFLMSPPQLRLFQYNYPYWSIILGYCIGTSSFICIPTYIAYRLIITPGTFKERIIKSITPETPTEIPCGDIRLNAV

Compound | Emax [1] | Imax [1] | Ki [2] | Ki [3] | IC50 [4] | inhibition [5] | IC50 [6] | inhibition [7] | IC50 [8] | Ki [9] | inhibition [10]
COc1cccc2c1O[C@@H](CN1[C@@H]3CC[C@H]1C[C@](O)(c1csc4ccccc14)C3)CO2 | 0% | 92% | 0.106 µM | 0.0016 µM | 0.13 µM | 0% | 0.036 µM | – | – | – | –
COc1cccc2c1O[C@@H](CN1C3C=C(c4ccc5ccccc5c4)CC1CC3)CO2 (stereo partly drawn) | – | – | 0.229 µM | – | – | – | – | 43% | 0.767 µM | 0.0014 µM | –
CCOc1cccc2c1O[C@@H](CN1[C@@H]3CC[C@H]1C[C@](O)(c1ccccc1)C3)CO2 | – | – | 0.0327 µM | 0.00305 µM | – | 0% | – | – | – | – | –
COc1cccc2c1O[C@@H](CN1[C@@H]3CC[C@H]1C[C@](O)(c1ccc4ccccc4c1)C3)CO2 | – | 100% | 0.042 µM | 0.00081 µM | 0.021 µM | – | 0.00985 µM | – | – | – | –
CCOc1cccc2c1O[C@@H](CN1[C@@H]3CC[C@H]1C[C@](O)(c1csc4ccccc14)C3)CO2 | – | – | 0.1235 µM | 0.0167 µM | – | 4% | – | – | – | – | –
COc1cccc2c1O[C@@H](CN1[C@@H]3CC[C@H]1C[C@](O)(c1ccccn1)C3)CO2 | – | 100% | – | 0.046 µM | – | 0% | 1.48 µM | – | – | – | –
COc1cccc2c1O[C@@H](CN1C3C=C(n4ccc5cc(F)ccc54)CC1CC3)CO2 (stereo partly drawn) | – | – | 0.071 µM | 0.128 µM | – | – | – | – | 0.138 µM | 0.0085 µM | –
COc1cccc2c1O[C@@H](CN1C3C=C(c4cccc5ccccc45)CC1CC3)CO2 (stereo partly drawn) | – | – | – | 0.357 µM | – | – | – | – | 0.951 µM | 0.026 µM | 26%
CCOc1cccc2c1O[C@@H](CN1[C@@H]3CC[C@H]1C[C@](O)(c1ccc4ccccc4c1)C3)CO2 | – | – | 0.1035 µM | 0.00587 µM | – | 0% | – | – | – | – | –
CCOc1cccc2c1O[C@@H](CN1[C@@H]3CC[C@H]1C[C@](O)(c1ccccn1)C3)CO2 | – | – | 0.147 µM | 0.0616 µM | – | 6% | – | – | – | – | –
COc1cccc2c1O[C@@H](CN1[C@@H]3CC[C@H]1C[C@](O)(c1ccccc1)C3)CO2 | – | 100% | – | 0.00153 µM | 0.021 µM | 0% | 0.025 µM | – | – | – | –
COc1cccc2c1O[C@@H](CN1C3C=C(c4ccc(Cl)c(Cl)c4)CC1CC3)CO2 (stereo partly drawn) | – | – | > 1 µM | – | – | – | – | 35% | 0.26 µM | 0.00469 µM | –
CCOc1cccc2c1O[C@@H](CN1[C@@H]3CC[C@H]1C[C@](O)(c1cccc(C(F)(F)F)c1)C3)CO2 | – | – | 0.0129 µM | 0.00292 µM | – | 0% | – | – | – | – | –
COc1cccc2c1O[C@@H](CN1C3C=C(c4cccc5cccnc45)CC1CC3)CO2 (stereo partly drawn) | – | – | 0.0462 µM | 0.307 µM | – | – | – | – | 0.109 µM | 0.033 µM | –
COc1cccc2c1O[C@@H](CN1[C@@H]3CC[C@H]1C[C@](O)(c1cccc(C(F)(F)F)c1)C3)CO2 | 90% | – | 0.0099 µM | 0.00033 µM | – | 9% | – | – | – | – | –
COc1ccccc1[C@]1(O)C[C@H]2CC[C@@H](C1)N2C[C@H]1COc2cccc(OC)c2O1 | 40% | – | – | 0.039 µM | – | 12% | – | – | – | – | –
